This passage reports pest or weed control results from US20110086759A1, “CHEMICAL COMPOUNDS” (SYNGENTA CROP PROTECTION, INC., priority 2007, published 2011).

Format in all cases: in vivo
For assay [1], the system named is Ipomea hederaceae (IPOHE). The experiment in a line: Pre-emergence biological efficacy, glasshouse pot test. To be noted: Ipomoea hederacea, 312 h; pre-emergence, rate 1,000 g/ha, evaluated after 13 days (100=total damage to plant; 0=no damage); read-out: Percentage damage caused to weed species, IPOHE. The method, boiled down: (§1)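 Visual phytotoxicity (0 no damage, 100 total damage) assessed 13 d after treatment. Soil-sown pots sprayed one day post-sowing; dose 1000 or 250 g/ha; formulation in acetone/water 50:50, 0.5% Tween 20.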

For assay [2], the system named is Solanum nigrum (SOLNI). Described as above. As to conditions: 312 h, pre-emergence, rate 1,000 g/ha, evaluated after 13 days (100=total damage to plant; 0=no damage), read-out: Percentage damage caused to weed species, SOLNI. The method, boiled down: as §1
In assay [3] the test system is Amaranthus retoflexus (AMARE). The description is as above. To be noted: Amaranthus retroflexus, 312 h; pre-emergence, rate 1,000 g/ha, evaluated after 13 days (100=total damage to plant; 0=no damage); read-out: Percentage damage caused to weed species, AMARE. The essentials: as §1
Assay [4] deals with Echinochloa crus-galli (ECHCG). The description is as above. As to conditions: 312 h, pre-emergence, rate 1,000 g/ha, evaluated after 13 days (100=total damage to plant; 0=no damage), read-out: Percentage damage caused to weed species, ECHCG. The essentials: as §1
The subject of assay [5] is Alopecurus myosuroides (ALOMY). The description is as above. To be noted: 312 h, pre-emergence, rate 1,000 g/ha, evaluated after 13 days (100=total damage to plant; 0=no damage), read-out: Percentage damage caused to weed species, ALOMY. The essentials: as §1
Assay [6] concerns Setaria faberi (SETFA). The description is as above. To be noted: 312 h, pre-emergence, rate 1,000 g/ha, evaluated after 13 days (100=total damage to plant; 0=no damage), read-out: Percentage damage caused to weed species, SETFA. The essentials: as §1
Assay [7] deals with Ipomea hederaceae (IPOHE). The experiment in a line: Post-emergence biological efficacy, glasshouse pot test. As to conditions: Ipomoea hederacea, 312 h; Rate 1,000 g/ha; post-emergence spray; evaluated after 13 days (100=total damage to plant; 0=no damage to plant); read-out: Percentage damage caused to weed species, post-emergence, IPOHE. The method, boiled down: (§2)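 Pot-grown weeds were sprayed 8 days after sowing with test compound in acetone/water (50:50) with 0.5% Tween 20 at 1000 or 250 g/ha. Glasshouse at 24/16° C day/night, 14 h light, 65% humidity. Damage scored 0-100 (100 = total damage) after 13 days.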

For assay [8], the system named is Solanum nigrum (SOLNI). Described as above. To be noted: 312 h, Rate 1,000 g/ha, post-emergence spray, evaluated after 13 days (100=total damage to plant; 0=no damage to plant), read-out: Percentage damage caused to weed species, post-emergence, SOLNI. The method, boiled down: as §2
For assay [9], the system named is Amaranthus retoflexus (AMARE). The assay is described as above. As to conditions: Amaranthus retroflexus, 312 h; Rate 1,000 g/ha; post-emergence spray; evaluated after 13 days (100=total damage to plant; 0=no damage to plant); read-out: Percentage damage caused to weed species, post-emergence, AMARE. The essentials:
as §2

In assay [10] the test system is Echinochloa crus-galli (ECHCG). Described as above. As to conditions: 312 h, Rate 1,000 g/ha, post-emergence spray, evaluated after 13 days (100=total damage to plant; 0=no damage to plant), read-out: Percentage damage caused to weed species, post-emergence, ECHCG. The method, boiled down:
as §2

Assay [11] relates to Alopecurus myosuroides (ALOMY). The assay is described as above. To be noted: 312 h, Rate 1,000 g/ha, post-emergence spray, evaluated after 13 days (100=total damage to plant; 0=no damage to plant), read-out: Percentage damage caused to weed species, post-emergence, ALOMY. The essentials: as §2
For assay [12], the system named is Setaria faberi (SETFA). Described as above. To be noted: 312 h, Rate 1,000 g/ha, post-emergence spray, evaluated after 13 days (100=total damage to plant; 0=no damage to plant), read-out: Percentage damage caused to weed species, post-emergence, SETFA. The method, boiled down:
as §2

Molecules are shown by their SMILES.

Take `COC(=O)c1nc(C2CC2)nc(N(C)CCc2ccccc2)c1Cl` [Compound 5-221, 5-Chloro-2-cyclopropyl-6-methoxycarbonyl-4-[(N-methyl)-N-(2-phenylethyl)-amino]pyrimidine]: the pest or weed control at 1000 g/ha in assay [1] was determined as 40%; in [2], 30%; in [3] it was 30%; in assay [4], 0%; in assay [5], 0%; in [6] it was 0%. Also, the pest or weed control at 1000 g/ha in assay [7] was found to be 100%; in [8], 80%; in assay [9], 100%; in assay [10], 30%; in [11], 10%; in assay [12], 40%.
Regarding `COC(=O)c1nc(C2CC2)nc(N(C)CCc2ccccn2)c1Cl` [Compound 5-228, 5-Chloro-2-cyclopropyl-6-methoxycarbonyl-4-[N-methyl-N-(2-pyrid-2-ylethyl)-amino]pyrimidine], the pest or weed control at 1000 g/ha is 0% in assay [1]; 70% in assay [2]; 80% in [3]; 0% in assay [4]; 0% in assay [5]; 0% in assay [6]. For the same compound, the pest or weed control at 1000 g/ha in [7] is 90%; in [8], 70%; in assay [9], 100%; in assay [10], 30%; in [11], 20%; in assay [12], 40%.
Take `COC(=O)c1nc(C2CC2)nc(N(C)CC(O)c2ccccc2)c1Cl` (stereo not drawn) [Compound 5-257, 5-Chloro-2-cyclopropyl-4-[N-(2-hydroxy-2-phenyl-ethyl)-N-methyl-amino]-6-methoxy-carbonylpyrimidine]: the pest or weed control at 1000 g/ha in assay [1] was determined as 50%; in assay [2], 100%; in assay [3], 100%; in assay [4] it was 30%; in assay [5], 10%; in [6], 10%. In addition, the pest or weed control at 1000 g/ha amounted to 80% in [7]; 80% in assay [8]; 100% in [9]; 30% in assay [10]; 20% in [11]; 50% in assay [12].
For the compound `COC(=O)c1nc(C2CC2)nc(N(C)C(C)C(O)c2ccccc2)c1Cl` (stereo not drawn) [Compound 5-270, 5-Chloro-2-cyclopropyl-4-[N-(2-hydroxy-1-methyl-2-phenyl-ethyl)-N-methyl-amino]-6-methoxycarbonyl-pyrimidine], the pest or weed control at 1000 g/ha stood at 20% in assay [1]; 50% in [2]; 90% in [3]; 0% in assay [4]; 10% in assay [5]; 0% in assay [6]. Moreover, the pest or weed control at 1000 g/ha worked out at 90% in assay [7]; 80% in assay [8]; 90% in [9]; 0% in assay [10]; 10% in assay [11]; 30% in assay [12].
Turning to `CCN(c1nc(C2CC2)nc(C(=O)OC)c1Cl)C1CCCCC1` [Compound 6-35, 5-Chloro-4-(N-cyclohexyl-N-ethyl-amino)-2-cyclo-propyl-6-methoxy-carbonylpyrimidine], the pest or weed control at 1000 g/ha in [1] amounted to 30%; in [2], 60%; in [3], 100%; in [4], 0%; in assay [5], 10%; in [6], 0%. The pest or weed control at 1000 g/ha in assay [7] is 80%; in assay [8], 70%; in assay [9], 70%; in assay [10] it was 0%; in [11], 0%; in assay [12], 40%.
Consider `CCN(Cc1ccccc1)c1nc(C2CC2)nc(C(=O)OC)c1Cl` [Compound 6-60, 5-Chloro-2-cyclopropyl-4-([N-ethyl-N-phenylmethyl]-amino)-6-methoxycarbonyl-pyrimidine], for which the pest or weed control at 1000 g/ha was 20% in assay [1]; 100% in assay [2]; 100% in [3]; 20% in assay [4]; 20% in assay [5]; 30% in [6]. In addition, the pest or weed control at 1000 g/ha in assay [7] was 100%; in [8] it was 90%; in assay [9], 100%; in assay [10] it was 70%; in assay [11], 30%; in assay [12], 90%.
Regarding `CCN(Cc1ccccc1F)c1nc(C2CC2)nc(C(=O)OC)c1Cl` [Compound 6-64, 5-Chloro-2-cyclopropyl-4-[N-ethyl-N-(2-fluoro-phenyl)methyl-amino]-6-methoxycarbonyl-pyrimidine], the pest or weed control at 1000 g/ha in assay [1] was determined as 50%; in assay [2] it was 20%; in assay [3], 60%; in [4], 20%; in [5] it was 10%; in assay [6] it was 30%. The pest or weed control at 1000 g/ha in [7] was determined as 100%; in assay [8], 100%; in assay [9] it was 100%; in assay [10] it was 70%; in assay [11], 30%; in assay [12], 90%.
On to `CCN(Cc1cccc(F)c1)c1nc(C2CC2)nc(C(=O)OC)c1Cl` [Compound 6-65, 5-Chloro-2-cyclopropyl-4-[N-ethyl-N-(3-fluorophenylmethyl)-amino]-6-methoxycarbonyl-pyrimidine], for which the pest or weed control at 1000 g/ha in assay [1] was found to be 70%; in [2] it was 40%; in assay [3], 70%; in assay [4] it was 20%; in assay [5], 20%; in assay [6] it was 30%. The pest or weed control at 1000 g/ha in assay [7] is 100%; in [8], 90%; in [9], 100%; in assay [10], 70%; in assay [11] it was 10%; in [12] it was 90%.
